Assay results published in patent publication US20120021061A1, “MEDICAL AND NUTRITIONAL FORMULATIONS” (Comvita New Zealand Limited, priority 2008, published 2012).
Where two headings read alike, the source gives them in different places.

Tests used:
H. pylori SS1 = experiment: Viability of H. pylori SS1 after overnight incubation with MGO or honey (drop plate CFU); type: cell-based, Helicobacter pylori; settings: for Helicobacter pylori viable count: catalase treated
Method: The H. pylori SS1 strain was obtained and initially cultured on Campylobacter Selective Agar (CSA) plates and incubated at 37° C. under microaerobic conditions (10% Co2) for 48 h. Following culture, the isolates were checked for purity (microscopy, catalase and oxidase), after which SS1 was cultured in Brucella broth supplemented with 5% Fetal Bovine Serum and 1% Vitox under microaerobic conditions with shaking for 24 h. The effect of 1) methylglyoxal (MGO), density 1.17 g/ml, 2) Honey M1: Manuka honey O50336-10 (MGO content=0.593 mg/g), 3) Honey M2=Honey M1 adjusted to a pH of 9.0, 4) Honey M3=Comvita Wound Care Honey 18+ (MGO content=0.6 mg/g) and 5) Honey C: Control honey (100% Australian Honey, Leabrook Farms, Australia) on H. pylori was determined. MGO at concentrations of 1, 5, 10, 20, 50 and 100 mg/L were prepared by dissolving an appropriate amount of MGO in Brucella broth. To ensure an equivalent concentration of MGO in the Manuka honeys, the appropriate weight of honey (Honey M1 and Honey M2=6.75 g), (Honey M3=6.67 g) was measured out, after which an equal volume of Brucella broth at 37° C. was added to the honey and this was vortexed to aid mixing. Following vortexing, an equal volume of catalase solution (2 mg/ml) prepared from bovine liver was added to negate the effect of hydrogen peroxide, and this was again vortexed to aid mixing. The total volume was then adjusted to 40 ml using Brucella broth. […] The control Honey C was prepared in a similar fashion starting with an initial weight=6.71 g). To avoid contamination with lactic acid bacteria that are commonly present in honey (e.g. Leuconostoc citreum and Lactococcus garvieae), preparations of honey M1 and Honey C were filter sterilized through 0.22 µm pore size membrane filters prior to use in the in vitro assay. The Comvita wound care 18+ honey was not filter sterilised as this product undergoes sterilisation on manufacture. […] H. pylori were grown in broth culture overnight as described above. Following incubation, cells were washed once and resuspended in Brucella broth to an Optical Density (OD) 600 1.5. Ten pl of the microbial suspension was then inoculated into wells of a 96-well microtiter plate containing 200 pl of broth, supplemented with a range of concentrations of MGO (0, 1, 5, 10, 20, 50 and 100 mg/L), or an equivalent concentration of MGO contained in the Manuka honeys, or the same percentage of control honey. Each of the concentrations of MGO, MGO in the Manuka honeys and the control honey were tested in triplicate. Following addition of H. pylori to the microtiter plates, these were incubated under microaerobic conditions (10% CO2) overnight. Following incubation the number of viable colonies in the wells was assessed using the drop plate method. Following incubation the number of visible colonies on CSA agar plates were counted and the colony forming units (CFU)/ml calculated.

IL-1β = experiment: Cytokine production by peripheral blood mononuclear cells, IL-1β; type: cell-based; settings: human PBMC supernatants; FIG. 9
Method: (§1) An experiment was completed using three honey samples, the first being a high UMF manuka honey containing 1002 mg of MGO/kg, a moderate UMF manuka honey containing 649 mg of MGO/kg, a clover honey containing minimal MGO/kg and pure MGO alone. Results were compared against a negative control with cells alone […] and PHA as the inflammatory agent. Human blood was collected from six donors and peripheral blood mononuclear cells were separated by Ficoll gradients. Donor bloods were processed in pairs. The experiments tested the effect of the honey on the blood cells and the levels of cytokines produced. Supernatents from cells incubated with varying honey and MGO concentrations were collected and assayed for a number of pro and anti-inflammatory cytokines. Cytokines are molecules secreted by cells that are involved in communication between cells. Cytokines bind to specific receptors on cell surfaces and the signals then created can alter cellular functions. The cytokines tested in this study were IL-1β, IL-10 and […]. Cytokines were measured using a biorad, bioplex suspension array system.

IL-10 = experiment: Cytokine production by peripheral blood mononuclear cells, IL-10; type: cell-based; settings: human PBMC supernatants; FIG. 10
Method: as §1

TNFα = experiment: Cytokine production by peripheral blood mononuclear cells, TNFα; type: cell-based; settings: human PBMC supernatants; FIG. 11
Method: as §1

Helicobacter pylori = Helicobacter pylori infected mice fed honey; type: in vivo; settings: honey 2.8 g/kg body weight, MGO given in sugar solution
Excerpt: An experiment was completed feeding manuka honey with a UMF 22 to Helicobacter pylori infected mice at a rate of 2.8 g/kg body weight honey.

neutrophils = experiment: Neutrophil superoxide production with honeys of increasing MGO; type: cell-based; settings: increasing MGO concentrations in honey
Excerpt: The inventors conducted an experiment to determine whether increasing MGO concentrations also increase the ability of honey with the MGO to prevent or slow neutrophils from making superoxides (a part of the inflammatory response).

E. coli O157/Nissle = type: cell-based; settings: no honey

Q: Which “Helicobacter pylori viable count” value (H. pylori SS1; MGO conc 50 mg/L, honey conc 8.4%, listed as MGO at pH 9) does the source give for `CC(=O)C=O` [MGO (pH 9), methylglyoxal] here?
A: 6.9×10^6 CFU/ml

Q: And the “Helicobacter pylori viable count” value (H. pylori SS1; MGO conc 100 mg/L, honey conc 16.7%, listed as MGO at pH 9)?
A: 1.7×10^6 CFU/ml

Q: What does the source list for `CC(=O)C=O` [MGO, methylglyoxal]?
A: IL-1β production (IL-1β): no effect; IL-10 values (IL-10): not affected; TNFα production (TNFα): no effect; MGO concentration at which CFU of H. pylori SS1 were reduced (H. pylori SS1; MGO alone or equivalent MGO in honey): ≥ 20 mg/L; Helicobacter pylori viable count (H. pylori SS1; MGO conc 20 mg/L, honey conc 4.2%): 7.1×10^6 CFU/ml; Helicobacter pylori viable count (H. pylori SS1; MGO conc 50 mg/L, honey conc 8.4%): 7.0×10^5 CFU/ml; Helicobacter pylori viable count (H. pylori SS1; MGO conc 100 mg/L, honey conc 16.7%): 1.1×10^4 CFU/ml; H. pylori bacteria numbers in infected mice (Helicobacter pylori): does not reduce bacteria numbers alone; Ability to prevent or slow neutrophils from making superoxides (neutrophils): made no difference at all

Q: Which results are given for `OO` [Peroxide, hydrogen peroxide]?
A: Mean inhibition zone (n = 3) (E. coli O157/Nissle; peroxide 36.7 mM + catalase 1000 U/mL): 0.0 mm; Mean inhibition zone (n = 3) (E. coli O157/Nissle; peroxide 36.7 mM alone): 3.3 mm

Q: Which “Mean inhibition zone (n = 3)” value (E. coli O157/Nissle; catalase 1000 U/mL alone) does the source give for Catalase here?
A: 0.0 mm
